This passage reports IC50 results from patent US20260217697A1, “COMPOUNDS COMPRISING HETEROARYL RINGS AND COMPOSITIONS AND METHODS THEREOF” (lonGen Therapeutics Co., Ltd., priority 2022, published 2026).

Each structure is given as a SMILES string. pIC50: −log10 of the molar value.

This assay addresses T1, hTRPV3 (Homo sapiens, UniProt Q8NET8).
T1 construct: The commercially available plasmid with the full-length cDNA of hTRPV3 (791 aa) (NM_001258205.2); host or cells: HEK293T
T1 sequence (Q8NET8 1-791 isoform Q8NET8-2): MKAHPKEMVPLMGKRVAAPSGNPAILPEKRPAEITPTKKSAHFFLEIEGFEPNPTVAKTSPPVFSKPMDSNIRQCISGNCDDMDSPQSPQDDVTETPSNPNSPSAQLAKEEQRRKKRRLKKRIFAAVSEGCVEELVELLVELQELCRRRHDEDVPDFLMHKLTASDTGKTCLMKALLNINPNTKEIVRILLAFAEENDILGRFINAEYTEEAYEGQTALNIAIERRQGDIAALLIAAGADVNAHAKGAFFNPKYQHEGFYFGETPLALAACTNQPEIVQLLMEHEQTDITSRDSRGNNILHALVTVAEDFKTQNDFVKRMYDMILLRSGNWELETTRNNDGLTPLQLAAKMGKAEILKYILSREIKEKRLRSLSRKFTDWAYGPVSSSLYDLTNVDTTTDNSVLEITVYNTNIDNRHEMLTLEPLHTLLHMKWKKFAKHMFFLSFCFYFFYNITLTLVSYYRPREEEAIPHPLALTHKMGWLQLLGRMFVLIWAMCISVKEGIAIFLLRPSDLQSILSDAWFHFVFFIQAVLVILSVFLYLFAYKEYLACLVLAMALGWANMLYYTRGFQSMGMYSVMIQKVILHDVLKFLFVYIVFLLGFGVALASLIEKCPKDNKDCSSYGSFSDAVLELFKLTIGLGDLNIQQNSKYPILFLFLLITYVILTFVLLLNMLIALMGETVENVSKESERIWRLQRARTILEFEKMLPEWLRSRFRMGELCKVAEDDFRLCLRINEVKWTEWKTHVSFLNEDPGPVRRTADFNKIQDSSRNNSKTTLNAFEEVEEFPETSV
The assay can be described thus: Whole-cell patch-clamp recording of hTRPV3 current in transfected HEK293T cells (2-APB induced). Conditions: current induced by 300 μM 2-APB, compounds tested up to 10 μM, room temperature. Type of assay: cell-based. The protocol:
Various technologies can be utilized to assess TRPV3 activation in accordance with the present disclosure. For example, in some embodiments, compounds are assessed in in vitro patch clamp experiments. Certain useful procedures are described herein as examples.
In some embodiments, whole-cell patch-clamp recordings were used to detect the current through hTRPV3 channels in the HEK293T cell line transfected with hTRPV3 cDNA and evaluate the exact blocking effect of compounds on hTRPV3. In some embodiments, a perfusion system was adopted to control the extracellular solution, including the addition of the agonist and different antagonists.
HEK293T cells were cultured in a Dulbecco's modified Eagle's medium containing 10% fetal bovine serum (Thermo Scientific) and 1% penicillin/streptomycin (Thermo Scientific) at 37° C. with 5% CO2. The commercially available plasmid with the full-length cDNA of hTRPV3 (791 aa) (NM_001258205.2) was purchased from OriGene Technologies. The transfection of hTRPV3 plasmids was conducted using Lipofectamine™ 3000 following the manufacturer's instructions (Invitrogen).
Whole-cell patch-clamp experiments were performed 18 h post-transfection, using a MultiClamp 700B amplifier driven by pClamp 11 software (Molecular Devices). In order to achieve good single-cell physical separation, HEK293T cells with hTRPV3 expression were digested and then re-plated at low density on glass coverslips. Electrodes were pulled from borosilicate glass with a P-97 micropipette puller (Sutter Instruments) and those with resistances of 3-5 MΩ are used for experiments. In some embodiments, an Ag—AgCl wire was used as a reference electrode and signals are filtered using a 2.9 kHz low-pass Bessel filter. Membrane potential was held at 0 mV. For recording of agonist-induced activation and inhibition by different test compounds, currents were elicited by a protocol consisting of a 400-ms step to +80 mV, followed by a 400-ms step to −80 mV at 2-s intervals. both pipette and bath solutions contained 130 mM NaCl, 0.3 mM EDTA, and 3 mM HEPES (buffered to pH 7.4 with NaOH). All recordings were made at room temperature.
All patch-clamp recordings were analyzed using the Clampfit software and GraphPad Prism 6.0 software. Specifically, data are analyzed by calculating the degree of current amplitude after the test compound addition compared with the unblocked agonist-induced current amplitude. The resulting blocking percentage at each concentration was used to make a concentration-response analysis and fitted to the Hill equation: blocking percentage=minimum blocking percentage+ (maximum blocking percentage-minimum blocking percentage)/(1+10^(Hill slope* […])). The minimum blocking percentage is 0% and maximum blocking percentage is 100%, while the Hill slope and the IC50 were determined as the curve fitting routine. Compounds of interest were tested against hTRPV3 at concentrations up to 10 μM, and certain data was used to estimate IC50 as described herein.
Consider `COc1ncnc(OC)c1C(=O)Nc1nc2c(s1)COc1cc(C(F)(F)F)ccc1-2` [compound 1, 4,6-dimethoxy-N-(7-(trifluoromethyl)-4H-chromeno[4,3-d]thiazol-2-yl)pyrimidine-5-carboxamide], for which the negative logarithm of the IC50 (pIC50) was 6.00 to 7.00.
Regarding `COc1ncnc(OC)c1C(=O)Nc1nc2c(s1)CCc1ccccc1-2` [compound 2, N-(4,5-dihydronaphtho[1,2-d]thiazol-2-yl)-4,6-dimethoxypyrimidine-5-carboxamide], the pIC50 was at most 5.00.
To `COc1ncnc(OC)c1C(=O)Nc1nc2c(s1)CCc1ccc(Cl)cc1-2` [compound 3, N-(8-chloro-4,5-dihydronaphtho[1,2-d]thiazol-2-yl)-4,6-dimethoxypyrimidine-5-carboxamide] belongs 5.00 to 6.00.
The figure for `COc1ncnc(OC)c1C(=O)Nc1nc2c(s1)CCCc1ccccc1-2` [compound 4, N-(5,6-dihydro-4H-benzo[6,7]cyclohepta[1,2-d]thiazol-2-yl)-4,6-dimethoxypyrimidine-5-carboxamide] is at most 5.00.
The molecule `COc1ncnc(OC)c1C(=O)Nc1nc2c(s1)CSc1ccc(Cl)cc1-2` [compound 5, N-(8-chloro-4H-thiochromeno[4,3-d]thiazol-2-yl)-4,6-dimethoxypyrimidine-5-carboxamide] gave a pIC50 of at most 5.00.
The figure for `COc1ncnc(OC)c1C(=O)Nc1nc2c(s1)COc1cc(Br)ccc1-2` [compound 6, N-(7-bromo-4H-chromeno[4,3-d]thiazol-2-yl)-4,6-dimethoxypyrimidine-5-carboxamide] is at most 5.00; for `COc1ncnc(OC)c1C(=O)Nc1nc2c(s1)Cc1ccc(Cl)cc1-2` [compound 7, N-(5-chloro-8H-indeno[1,2-d]thiazol-2-yl)-4,6-dimethoxypyrimidine-5-carboxamide] it is 5.00 to 6.00; for `COc1ncnc(OC)c1C(=O)Nc1nc2c(s1)C(C)(C)Oc1cc(C(F)(F)F)ccc1-2` [compound 8, N-(4,4-dimethyl-7-(trifluoromethyl)-4H-chromeno[4,3-d]thiazol-2-yl)-4,6-dimethoxypyrimidine-5-carboxamide] it is 6.00 to 7.00.
To `COc1ncnc(OC)c1C(=O)Nc1nc2c(s1)c(=O)oc1cc(C(F)(F)F)ccc12` [compound 9, 4,6-dimethoxy-N-(4-oxo-7-(trifluoromethyl)-4H-chromeno[4,3-d]thiazol-2-yl)pyrimidine-5-carboxamide] belongs at most 5.00; to `COc1ncnc(OC)c1C(=O)Nc1nc2c(s1)COc1cc(F)ccc1-2` [compound 10, N-(7-fluoro-4H-chromeno[4,3-d]thiazol-2-yl)-4,6-dimethoxypyrimidine-5-carboxamide], at most 5.00; to `COc1ccc2c(c1)OCc1sc(NC(=O)c3c(OC)ncnc3OC)nc1-2` [compound 11, 4,6-dimethoxy-N-(7-methoxy-4H-chromeno[4,3-d]thiazol-2-yl)pyrimidine-5-carboxamide], at most 5.00.
Molecule `COc1ncnc(OC)c1C(=O)Nc1nc2c(s1)C1(CCCN(C(=O)OC(C)(C)C)C1)Oc1cc(C(F)(F)F)ccc1-2` (stereo not drawn) [compound 12, tert-butyl 2-(4,6-dimethoxypyrimidine-5-carboxamido)-7-(trifluoromethyl)spiro[chromeno[4,3-d]thiazole-4,3′-piperidine]-1′-carboxylate] had a negative-log IC50 (pIC50) of 6.00 to 7.00.
The figure for `COc1ncnc(OC)c1C(=O)Nc1nc2c(s1)C1(CCCCC1)Oc1cc(C(F)(F)F)ccc1-2` [compound 13, 4,6-dimethoxy-N-(7-(trifluoromethyl)spiro[chromeno[4,3-d]thiazole-4,1′-cyclohexan]-2-yl)pyrimidine-5-carboxamide] is over 7.00; for `COc1ncnc(OC)c1C(=O)Nc1nc2c(s1)COc1cc(OC(=O)C(C)(C)C)ccc1-2` [compound 14, 2-(4,6-dimethoxypyrimidine-5-carboxamido)-4H-chromeno[4,3-d]thiazol-7-yl pivalate] it is 5.00 to 6.00; for `COc1ncnc(OC)c1C(=O)Nc1nc2c(s1)COc1c-2cccc1C(F)(F)F` [compound 15, 4,6-dimethoxy-N-(6-(trifluoromethyl)-4H-chromeno[4,3-d]thiazol-2-yl)pyrimidine-5-carboxamide] it is at most 5.00.
The figure for `COc1ncnc(OC)c1C(=O)Nc1nc2c(s1)COc1ccc(C)cc1-2` [compound 16, 4,6-dimethoxy-N-(8-methyl-4H-chromeno[4,3-d]thiazol-2-yl)pyrimidine-5-carboxamide] is at most 5.00.
To `COc1ccc2c(c1)-c1nc(NC(=O)c3c(OC)ncnc3OC)sc1CO2` [compound 17, 4,6-dimethoxy-N-(8-methoxy-4H-chromeno[4,3-d]thiazol-2-yl)pyrimidine-5-carboxamide] belongs at most 5.00.
The molecule `COc1ncnc(OC)c1C(=O)Nc1nc2c(s1)C1(CCC(C(C)(C)C)CC1)Oc1cc(C(F)(F)F)ccc1-2` (stereo not drawn) [compound 18, N-(4′-(tert-butyl)-7-(trifluoromethyl)spiro[chromeno[4,3-d]thiazole-4,1′-cyclohexan]-2-yl)-4,6-dimethoxypyrimidine-5-carboxamide] had a pIC50 of 5.00 to 6.00.
The figure for `COc1ncnc(OC)c1C(=O)NC1=NC2c3ccc(C(F)(F)F)cc3OC3(CCC3)C2S1` (stereo not drawn) [compound 19, 4,6-dimethoxy-N-(7-(trifluoromethyl)-3a,9b-dihydrospiro[chromeno[4,3-d]thiazole-4,1′-cyclobutan]-2-yl)pyrimidine-5-carboxamide] is 6.00 to 7.00; for `COc1ncnc(OC)c1C(=O)Nc1nc2c(s1)C1(Oc3cc(C(F)(F)F)ccc3-2)C2CC3CC(C2)CC1C3` (stereo not drawn) [compound 20, 4,6-dimethoxy-N-(7′-(trifluoromethyl)spiro[adamantane-2,4′-chromeno[4,3-d]thiazol]-2′-yl)pyrimidine-5-carboxamide] it is 6.00 to 7.00.
`COc1ncnc(OC)c1C(=O)Nc1nc2c(s1)C1(CCOC1)Oc1cc(C(F)(F)F)ccc1-2` (stereo not drawn) [compound 21, 4,6-dimethoxy-N-(7-(trifluoromethyl)-4′,5′-dihydro-2′H-spiro[chromeno[4,3-d]thiazole-4,3′-furan]-2-yl)pyrimidine-5-carboxamide] had a pIC50 of 6.00 to 7.00.
In turn, `COc1ncnc(OC)c1C(=O)Nc1nc2c(s1)CCc1cc(C(F)(F)F)ccc1-2` [compound 22, 4,6-dimethoxy-N-(7-(trifluoromethyl)-4,5-dihydronaphtho[1,2-d]thiazol-2-yl)pyrimidine-5-carboxamide] had a pIC50 of at most 5.00.
For the molecule `COc1ncnc(OC)c1C(=O)Nc1nc2c(s1)C1(CCCC1)Oc1cc(C(F)(F)F)ccc1-2` [compound 23, 4,6-dimethoxy-N-(7-(trifluoromethyl)spiro[chromeno[4,3-d]thiazole-4,1′-cyclopentan]-2-yl)pyrimidine-5-carboxamide], the negative-log IC50 (pIC50) is 6.00 to 7.00.
`CCC1(CC)Oc2cc(C(F)(F)F)ccc2-c2nc(NC(=O)c3c(OC)ncnc3OC)sc21` [compound 24, N-(4,4-diethyl-7-(trifluoromethyl)-4H-chromeno[4,3-d]thiazol-2-yl)-4,6-dimethoxypyrimidine-5-carboxamide]: the pIC50 was over 7.00.

One may read the pIC50 as −log10 of the IC50, conventionally taken in molar units.
